Experimental data: US20250127799A1, “DRUG CONJUGATES FOR BONE MARROW PROTECTION” (priority 2023, published 2025)
Peptide text beside a SMILES is read from it. * marks the point of attachment. X1 = O=C(CCCCCN1C(=O)CC(*)C1=O)NCCCC(O)(P(=O)(O)O)P(=O)(O)O; X2 = O=P(O)(O)SCCNCCCN*

System: CD2F1 male mice
Test: Pathological evaluation of irradiated mice injected with a single dose
Assay type: in vivo
Design: key to Pathological change grade: Spleen, Depletion, white pulp / Pathological change grade: Lung, Infiltrate, mixed cells / Pathological change grade: Lung, Fibrosis / Pathological change grade: Heart, Infiltrate, mixed cells / Pathological change grade: Heart, Mineralization / Pathological change grade: Duodenum / Pathological change grade: Jejunum / Pathological change grade: Ileum / Pathological change grade: Colon, Infiltrate, mixed cells / Pathological change grade: Kidney / Pathological change grade: Urinary bladder / Pathological change grade: Bone Marrow, Atrophy / Pathological change grade: Bone Marrow, Hemorrhage / Pathological change grade: Liver: 0=no change; 1=a minimal change, barely perceptible; 2=a mild change; 3 =a moderate change, affecting up to 50% of the tissue; 4=marked change, affecting up to 90% of the tissue; 5=severe or maximum change
Description: CD2F1 male mice (N=16) were subcutaneously (sc) injected with a single dose of one conjugate drug. For one protective drug conjugate (Conjugate 2), the tested doses were 250, 500, 600, and 700 mg/kg, and the irradiation was conducted at 24 h post-drug administration. The structure of Conjugate 2 included amifostine as the protective drug, alendronate as the bone-targeting ligand, and a protease-cleavable peptide having the sequence of CPLGLYAL (SEQ ID NO: 29) with acetylation at the N-terminus (e.g., AcCPLGLYAL; SEQ ID NO: 76). On day 30, surviving mice were humanely sacrificed and necropsied, eleven tissues of interest (liver, spleen, lung, heart, duodenum, jejunum, ileum, colon, kidney, urinary bladder, and sternum/bone marrow) were collected, preserved in fixative, and processed to glass slides. The completed preparations were stained with hematoxylin and eosin and examined microscopically. Pathological changes in the tissues were graded using a semi-quantitation scale of 0-5, where 0=no change, 1=a minimal change, barely perceptible; 2=a mild change; 3 =a moderate change, affecting up to 50% of the tissue; 4=marked change, affecting up to 90% of the tissue; and 5=severe or maximum change.

[1] = 250 mg/kg sc, 24 h before 9.2 Gy, day 30, N = 11
[2] = 500 mg/kg sc, 24 h before 9.2 Gy, day 30, N = 12
[3] = 600 mg/kg sc, 24 h before 9.2 Gy, day 30, N = 15
[4] = 700 mg/kg sc, 24 h before 9.2 Gy, day 30, N = 16

Compound: CC(=O)N[C@@H](CSC1CC(=O)N(CCCCCC(=O)NCCCC(O)(P(=O)(O)O)P(=O)(O)O)C1=O)C(=O)N1CCC[C@H]1C(=O)N[C@@H](CC(C)C)C(=O)NCC(=O)N[C@@H](CC(C)C)C(=O)N[C@@H](Cc1ccc(O)cc1)C(=O)N[C@@H](C)C(=O)N[C@@H](CC(C)C)C(=O)NCCCNCCSP(=O)(O)O (some centres unmarked) [Conjugate 2] (Ac-C(X1)PLGLYAL-X2)
- Pathological change grade: Bone Marrow, Atrophy [1]: 2-3
- Pathological change grade: Bone Marrow, Hemorrhage [1]: 0-1
- Pathological change grade: Colon, Infiltrate, mixed cells [1]: 1
- Pathological change grade: Duodenum [1]: 0
- Pathological change grade: Heart, Infiltrate, mixed cells [1]: 0
- Pathological change grade: Heart, Mineralization [1]: 0
- Pathological change grade: Ileum [1]: 0
- Pathological change grade: Jejunum [1]: 0
- Pathological change grade: Kidney [1]: 0
- Pathological change grade: Liver [1]: 0
- Pathological change grade: Lung, Fibrosis [1]: 0
- Pathological change grade: Lung, Infiltrate, mixed cells [1]: 0
- Pathological change grade: Spleen, Depletion, white pulp [1]: 2
- Pathological change grade: Urinary bladder [1]: 0
- Pathological change grade: Bone Marrow, Atrophy [2]: 2-3
- Pathological change grade: Bone Marrow, Hemorrhage [2]: 0-1
- Pathological change grade: Colon, Infiltrate, mixed cells [2]: 1
- Pathological change grade: Duodenum [2]: 0
- Pathological change grade: Heart, Infiltrate, mixed cells [2]: 0
- Pathological change grade: Heart, Mineralization [2]: 0
- Pathological change grade: Ileum [2]: 0
- Pathological change grade: Jejunum [2]: 0
- Pathological change grade: Kidney [2]: 0
- Pathological change grade: Liver [2]: 0
- Pathological change grade: Lung, Fibrosis [2]: 0
- Pathological change grade: Lung, Infiltrate, mixed cells [2]: 0
- Pathological change grade: Spleen, Depletion, white pulp [2]: 1-2
- Pathological change grade: Urinary bladder [2]: 0
- Pathological change grade: Bone Marrow, Atrophy [3]: 2-3
- Pathological change grade: Bone Marrow, Hemorrhage [3]: 0-1
- Pathological change grade: Colon, Infiltrate, mixed cells [3]: 0-1
- Pathological change grade: Duodenum [3]: 0
- Pathological change grade: Heart, Infiltrate, mixed cells [3]: 0
- Pathological change grade: Heart, Mineralization [3]: 0
- Pathological change grade: Ileum [3]: 0
- Pathological change grade: Jejunum [3]: 0
- Pathological change grade: Kidney [3]: 0
- Pathological change grade: Liver [3]: 0
- Pathological change grade: Lung, Fibrosis [3]: 0
- Pathological change grade: Lung, Infiltrate, mixed cells [3]: 0
- Pathological change grade: Spleen, Depletion, white pulp [3]: 1-2
- Pathological change grade: Urinary bladder [3]: 0
- sternal bone marrow histology compared to Vehicle Group (700 mg/kg 24 h before 9.2 Gy, day 30 (FIG. 11B)): much denser marrow
- white pulp of the spleen, histology (700 mg/kg 24 h before 9.2 Gy, day 30 (FIG. 11D)): essentially normal
- Pathological change grade: Bone Marrow, Atrophy [4]: 2
- Pathological change grade: Bone Marrow, Hemorrhage [4]: 0
- Pathological change grade: Colon, Infiltrate, mixed cells [4]: 0-1
- Pathological change grade: Duodenum [4]: 0
- Pathological change grade: Heart, Infiltrate, mixed cells [4]: 0
- Pathological change grade: Heart, Mineralization [4]: 0
- Pathological change grade: Ileum [4]: 0
- Pathological change grade: Jejunum [4]: 0
- Pathological change grade: Kidney [4]: 0
- Pathological change grade: Liver [4]: 0
- Pathological change grade: Lung, Fibrosis [4]: 0
- Pathological change grade: Lung, Infiltrate, mixed cells [4]: 0
- Pathological change grade: Spleen, Depletion, white pulp [4]: 1-2
- Pathological change grade: Urinary bladder [4]: 0
- protective effects on tissue pathology, especially bone marrow (250, 500, 600, 700 mg/kg, 24 h before 9.2 Gy): significant dose-depending protective effects
